Legend:
[1] = target: T1, hEP4 (Homo sapiens, UniProt P35408); assay: hEP4 cAMP assay; assay type: cell-based; settings: HEK293 cells overexpressing hEP4; PGE2 agonist 20 nM; graded per Table 21; read-out: IC50 (nM) EP4 cAMP
T1 construct: expressed in transfected cells; host or cells: HEK293
Description: (§1) HEK293 cells overexpressing hEP4 were cultured in growth medium (GM: MEM (Gibco™, 11095080)/10% HI FBS (Gibco™, 10082147)/1% penicillin/streptomycin). Before the experiment, the growth medium was removed, and starvation medium (HBSS (Gibco™ 14025076)/10% GM) was added. Thereafter, the cells were incubated for 4 hours. HEK293 cells harboring hEP4 were detached from the culture dish with a non-enzymatic cell dissociation buffer (Gibco™, 15040066). The cells were resuspended in assay buffer (AB: HBSS, 0.1% BSA stabilizer, 0.5 mM IBMX, 5 mM HEPES).
(§2) 1,000 cells in 5 μL of AB were seeded per well in a 384 well plate (Corning®, 3570), and stock solutions of test compounds were prepared at a concentration of 1 mM in DMSO and serially diluted in DMSO to the concentration required for the inhibition dose response curve (test concentration range of 10 μM-0.001 nM). PGE2 (Sigma, P0409, stock solution: 100 μM) was used as an agonist at a final concentration of 20 nM corresponding to EC50-80. 2.5 μL of the diluted compound and 2.5 μL of PGE2 (20 nM final concentration) were transferred to the assay plate, and then the plate was incubated at room temperature for 18.5 minutes.
(§3) 5 μL of each donor (Eu-cAMP tracer) and acceptor (ULight-anti-cAMP) was added, and the plate was incubated in the dark for 1 hour at room temperature, and then a Varioskan LUX multimode microplate reader was used to obtain the results (excitation: 334 nm, emission: 615 and 665 nm). The resulting FRET fluorescence value (665 nm/615 nm*10000) was converted and then calculated as a percentage of cAMP compared to the DMSO control value. IC50 values and curves were generated with GraphPad Prism software using log (inhibitor) versus response-variable slope (4 parameters), and the median of multiple experiments was taken as the experiment result.

[2] = target: T2, hEP2 (Homo sapiens, UniProt P43116); assay: hEP2 cAMP assay; assay type: cell-based; settings: HEK293 cells overexpressing hEP2; PGE2 agonist 400 pM; graded per Table 21; read-out: IC50 (nM) EP2 cAMP
T2 construct: expressed in transfected cells; host or cells: HEK293
T2 sequence (P43116 whole entry): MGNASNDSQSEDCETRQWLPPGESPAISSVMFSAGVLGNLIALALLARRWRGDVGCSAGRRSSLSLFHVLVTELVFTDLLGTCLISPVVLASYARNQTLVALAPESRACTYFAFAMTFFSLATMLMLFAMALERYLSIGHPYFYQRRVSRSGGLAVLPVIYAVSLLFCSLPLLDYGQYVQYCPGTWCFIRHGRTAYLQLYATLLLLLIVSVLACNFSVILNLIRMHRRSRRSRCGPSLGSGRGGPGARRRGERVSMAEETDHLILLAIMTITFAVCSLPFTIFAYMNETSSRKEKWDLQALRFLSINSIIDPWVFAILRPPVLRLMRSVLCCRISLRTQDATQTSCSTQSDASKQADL
Description: as §1, with “overexpressing hEP2” for “overexpressing hEP4”, “(HBSS (Gibco™,” for “(HBSS (Gibco™”, “hours. The” for “hours.”, “harboring hEP2” for “harboring hEP4”
as §2, with “(Corning™,” for “(Corning®,”, “1” for “100”, “400 pM” for “20 nM”, “(400 pM” for “(20 nM”, “12” for “18.5”
as §3, with “relative” for “compared”, “slopes” for “slope”

T1 sequence (P35408 whole entry): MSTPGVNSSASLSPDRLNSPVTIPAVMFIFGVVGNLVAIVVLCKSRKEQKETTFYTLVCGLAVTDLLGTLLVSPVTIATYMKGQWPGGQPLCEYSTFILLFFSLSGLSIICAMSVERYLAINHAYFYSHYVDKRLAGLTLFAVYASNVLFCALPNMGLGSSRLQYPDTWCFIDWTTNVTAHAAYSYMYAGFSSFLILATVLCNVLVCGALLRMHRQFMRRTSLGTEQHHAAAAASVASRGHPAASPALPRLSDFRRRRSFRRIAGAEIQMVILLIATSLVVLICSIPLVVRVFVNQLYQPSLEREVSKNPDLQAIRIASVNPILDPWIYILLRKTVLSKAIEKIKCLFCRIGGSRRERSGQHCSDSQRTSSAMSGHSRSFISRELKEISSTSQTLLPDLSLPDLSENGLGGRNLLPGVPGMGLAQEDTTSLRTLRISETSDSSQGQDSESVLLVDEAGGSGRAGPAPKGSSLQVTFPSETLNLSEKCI

Q: With `COc1ccc(-c2ccc(Cc3c(C)sc(C)c3C(=O)NC3CC4(C3)CC(C(=O)O)C4)cc2)cc1F` (stereo not shown) [Example 40, 6-(4-((3′-fluoro-4′-methoxy-[1,1′-biphenyl]-4-yl)methyl)-2,5-dimethylthiophene-3-carboxamido)spiro[3.3]heptane-2-carboxylic acid] as the compound, how does the IC50 [1] read?
A: < 500 nM

Q: And the IC50 [2]?
A: 5000 to 10000 nM

Q: For `COc1cc(C#N)cc(-c2ccc(Cc3c(C)sc(C)c3C(=O)NC3CC4(C3)CC(C(=O)O)C4)cc2)c1` (stereo not shown) [Example 41, 6-(4-((3′-cyano-5′-methoxy-[1,1′-biphenyl]-4-yl)methyl)-2,5-dimethylthiophene-3-carboxamido)spiro[3.3]heptane-2-carboxylic acid], which IC50 [1] is on record?
A: < 500 nM

Q: And the IC50 [2]?
A: 500 to 5000 nM

Q: What does the source list for `Cc1sc(C)c(C(=O)NC2CC3(C2)CC(C(=O)O)C3)c1Cc1ccc(-c2ccc(OC(F)(F)F)cc2)cc1` (stereo not shown) [Example 42, 6-(2,5-dimethyl-4-((4′-(trifluoromethoxy)-[1,1′-biphenyl]-4-yl)methyl)thiophene-3-carboxamido)spiro[3.3]heptane-2-carboxylic acid]?
A: IC50 [1]: 500 to 5000 nM; IC50 [2]: > 10000 nM

Q: With `Cc1sc(C)c(C(=O)NC2CC3(C2)CC(C(=O)O)C3)c1Cc1ccc(-c2cccc(F)c2)cc1` (stereo not shown) [Example 43, 6-(4-((3′-fluoro-[1,1′-biphenyl]-4-yl)methyl)-2,5-dimethylthiophene-3-carboxamido)spiro[3.3]heptane-2-carboxylic acid] as the compound, how does the IC50 [1] read?
A: < 500 nM

Q: What about the IC50 [2] of the same compound?
A: 500 to 5000 nM

Q: Which results are given for `Cc1sc(C)c(C(=O)NC2CC3(C2)CC(C(=O)O)C3)c1Cc1ccc(-c2cccc(C(F)(F)F)c2)cc1` (stereo not shown) [Example 44, 6-(2,5-dimethyl-4-((3′-(trifluoromethyl)-[1,1′-biphenyl]-4-yl)methyl)thiophene-3-carboxamido)spiro[3.3]heptane-2-carboxylic acid]?
A: IC50 [1]: < 500 nM; IC50 [2]: 500 to 5000 nM

Q: How did the IC50 [1] turn out when `CCOc1cc(F)cc(-c2ccc(Cc3c(C)sc(C)c3C(=O)NC3CC4(C3)CC(C(=O)O)C4)cc2)c1` (stereo not shown) [Example 45, 6-(4-((3′-ethoxy-5′-fluoro-[1,1′-biphenyl]-4-yl)methyl)-2,5-dimethylthiophene-3-carboxamido)spiro[3.3]heptane-2-carboxylic acid] was run?
A: < 500 nM

Q: What about the IC50 [2] of the same compound?
A: 500 to 5000 nM

Q: What does the source list for `Cc1sc(C)c(C(=O)NC2CC3(C2)CC(C(=O)O)C3)c1Cc1ccc(-c2cc(F)cc(OC(C)C)c2)cc1` (stereo not shown) [Example 46, 6-(4-((3′-fluoro-5′-isopropoxy-[1,1′-biphenyl]-4-yl)methyl)-2,5-dimethylthiophene-3-carboxamido)spiro[3.3]heptane-2-carboxylic acid]?
A: IC50 [1]: 500 to 5000 nM; IC50 [2]: 500 to 5000 nM

Q: What does the source list for `COc1ccc(F)c(-c2ccc(Cc3c(C)sc(C)c3C(=O)NC3CC4(C3)CC(C(=O)O)C4)cc2)c1` (stereo not shown) [Example 47, 6-(4-((2′-fluoro-5′-methoxy-[1,1′-biphenyl]-4-yl)methyl)-2,5-dimethylthiophene-3-carboxamido)spiro[3.3]heptane-2-carboxylic acid]?
A: IC50 [1]: 500 to 5000 nM; IC50 [2]: > 10000 nM

Q: `COc1ccc(F)cc1-c1ccc(Cc2c(C)sc(C)c2C(=O)NC2CC3(C2)CC(C(=O)O)C3)cc1` (stereo not shown) [Example 48, 6-(4-((5′-fluoro-2′-methoxy-[1,1′-biphenyl]-4-yl)methyl)-2,5-dimethylthiophene-3-carboxamido)spiro[3.3]heptane-2-carboxylic acid] was tested. Which IC50 [1] did it give?
A: < 500 nM

Q: What about the IC50 [2] of the same compound?
A: > 10000 nM

Q: Which results are given for `Cc1sc(C)c(C(=O)NC2CC3(C2)CC(C(=O)O)C3)c1Cc1ccc(-c2ccccc2F)cc1` (stereo not shown) [Example 49, 6-(4-((2′-fluoro-[1,1′-biphenyl]-4-yl)methyl)-2,5-dimethylthiophene-3-carboxamido)spiro[3.3]heptane-2-carboxylic acid]?
A: IC50 [1]: > 10000 nM; IC50 [2]: > 10000 nM

Q: With `COc1cc(-c2ccc(Cc3c(C)sc(C)c3C(=O)NC3CC4(C3)CC(C(=O)O)C4)cc2)ccn1` (stereo not shown) [Example 50, 6-(4-(4-(2-methoxypyridin-4-yl)benzyl)-2,5-dimethylthiophene-3-carboxamido)spiro[3.3]heptane-2-carboxylic acid] as the compound, how does the IC50 [1] read?
A: < 500 nM

Q: What about the IC50 [2] of the same compound?
A: > 10000 nM

Q: For `COc1cc(-c2ccc(Cc3c(C)sc(C)c3C(=O)NC3CC4(C3)CC(C(=O)O)C4)cc2)cc(C(F)(F)F)c1` (stereo not shown) [Example 51, 6-(4-((3′-methoxy-5′-(trifluoromethyl)-[1,1′-biphenyl]-4-yl)methyl)-2,5-dimethylthiophene-3-carboxamido)spiro[3.3]heptane-2-carboxylic acid], which IC50 [1] is on record?
A: < 500 nM

Q: What about the IC50 [2] of the same compound?
A: 500 to 5000 nM

Q: How did the IC50 [1] turn out when `Cc1sc(C)c(C(=O)NC2CC3(C2)CC(C(=O)O)C3)c1Cc1ccc(-c2cc(F)cc(F)c2)cc1` (stereo not shown) [Example 52, 6-(4-((3′,5′-difluoro-[1,1′-biphenyl]-4-yl)methyl)-2,5-dimethylthiophene-3-carboxamido)spiro[3.3]heptane-2-carboxylic acid] was run?
A: < 500 nM

Q: What about the IC50 [2] of the same compound?
A: 5000 to 10000 nM

Q: Which IC50 [1] does the source give for `COc1cc(OC)cc(-c2ccc(Cc3c(C)sc(C)c3C(=O)NC3CC4(C3)CC(C(=O)O)C4)cc2)c1` (stereo not shown) [Example 53, 6-(4-((3′,5′-dimethoxy-[1,1′-biphenyl]-4-yl)methyl)-2,5-dimethylthiophene-3-carboxamido)spiro[3.3]heptane-2-carboxylic acid] here?
A: < 500 nM

Q: What about the IC50 [2] of the same compound?
A: 500 to 5000 nM

Q: With `Cc1sc(C)c(C(=O)NC2CC3(C2)CC(C(=O)O)C3)c1Cc1ccc(-c2cc(N)cc(F)c2)cc1` (stereo not shown) [Example 54, 6-(4-((3′-amino-5′-fluoro-[1,1′-biphenyl]-4-yl)methyl)-2,5-dimethylthiophene-3-carboxamido)spiro[3.3]heptane-2-carboxylic acid] as the compound, how does the IC50 [1] read?
A: < 500 nM

Q: What about the IC50 [2] of the same compound?
A: 500 to 5000 nM

Q: Which IC50 [1] does the source give for `CSc1cc(F)cc(-c2ccc(Cc3c(C)sc(C)c3C(=O)NC3CC4(C3)CC(C(=O)O)C4)cc2)c1` (stereo not shown) [Example 55, 6-(4-((3′-fluoro-5′-(methylthio)-[1,1′-biphenyl]-4-yl)methyl)-2,5-dimethylthiophene-3-carboxamido)spiro[3.3]heptane-2-carboxylic acid] here?
A: < 500 nM

Q: And the IC50 [2]?
A: 500 to 5000 nM

Q: What does the source list for `Cc1sc(C)c(C(=O)NC2CC3(C2)CC(C(=O)O)C3)c1Cc1ccc(-c2cc(F)cc(S(C)(=O)=O)c2)cc1` (stereo not shown) [Example 56, 6-(4-((3′-fluoro-5′-(methylsulfonyl)-[1,1′-biphenyl]-4-yl)methyl)-2,5-dimethylthiophene-3-carboxamido)spiro[3.3]heptane-2-carboxylic acid]?
A: IC50 [1]: 5000 to 10000 nM; IC50 [2]: > 10000 nM

Q: For `Cc1sc(C)c(C(=O)NC2CC3(C2)CC(C(=O)O)C3)c1Cc1ccc(-c2cc(F)cc(C(N)=O)c2)cc1` (stereo not shown) [Example 57, 6-(4-((3′-carbamoyl-5′-fluoro-[1,1′-biphenyl]-4-yl)methyl)-2,5-dimethylthiophene-3-carboxamido)spiro[3.3]heptane-2-carboxylic acid], which IC50 [1] is on record?
A: < 500 nM

Q: And the IC50 [2]?
A: 500 to 5000 nM

Q: `COc1cc(C(N)=O)cc(-c2ccc(Cc3c(C)sc(C)c3C(=O)NC3CC4(C3)CC(C(=O)O)C4)cc2)c1` (stereo not shown) [Example 58, 6-(4-((3′-carbamoyl-5′-methoxy-[1,1′-biphenyl]-4-yl)methyl)-2,5-dimethylthiophene-3-carboxamido)spiro[3.3]heptane-2-carboxylic acid] was tested. Which IC50 [1] did it give?
A: < 500 nM

Q: What about the IC50 [2] of the same compound?
A: 500 to 5000 nM

Q: How did the IC50 [1] turn out when `COc1cc(CNC(=O)OC(C)(C)C)cc(-c2ccc(Cc3c(C)sc(C)c3C(=O)NC3CC4(C3)CC(C(=O)O)C4)cc2)c1` (stereo not shown) [Example 59, 6-(4-((3′-(((tert-butoxycarbonyl)amino)methyl)-5′-methoxy-[1,1′-biphenyl]-4-yl)methyl)-2,5-dimethylthiophene-3-carboxamido)spiro[3.3]heptane-2-carboxylic acid] was run?
A: 500 to 5000 nM

Q: What about the IC50 [2] of the same compound?
A: > 10000 nM

From patent US20230365582A1, “NOVEL COMPOUNDS HAVING INHIBITORY ACTIVITY ON PROSTAGLANDIN E2 RECEPTOR AND USES THEREOF” (KANAPH THERAPEUTICS INC., priority 2020, published 2023)
